Results published in US20050175550A1, “Compositions for oral use” (priority 2000, published 2005).
In brackets after ≈: the same amount, converted by molar mass.

Tests used:
Assay in all cases: MIC by agar plate dilution method on standard strains (Example 3)
Format in all cases: cell-based
Conditions in all cases: read-out: MIC
[1] = test system: Staphylococcus epidermidis ATCC12228
Method: (§1) Minimum growth-inhibiting concentrations of trifluoromethionine and other antibacterial drugs on standard strains were determined by an agar plate dilution method according to the standard method of Japanese Society of Chemotherapy.
(§2) Drug solutions at a concentration 10 times as high as the maximum applicable concentration were prepared as original solutions of test drugs given in Table 2 (as to solvents used for this purpose, reference should be made also to Table 2). Serial two-fold dilution series of the original solutions were prepared at desired stages, and 1 ml each of the diluted drug solutions was added to 9 ml of media given in Table 3 to prepare drug plates. Concentration range of the individual drugs used are as follows: trifluoromethionine: 400-0.025 μg/ml (15 stages), tetracycline: 100-0.025 μg/ml (13 stages), and clarithromycin: 100-0.025 μg/ml (13 stages).
(§3) • 1) Bacterial solutions stocked at −80° C. were inoculated on agar media (as to media used, reference should be made to Table 3), and then incubated at 37° C. overnight. When desired, subculturing was conducted once more on the same agar media (by overnight incubation at 37° C.). • 2) Colonies growing on the agar media were sampled by a platinum loop, suspended in liquid media (reference should be made to Table 3) and statically incubated at 37° C. for 18 hours (preculturing). • 3) Preculturing was continued up to McFarland 0.5 (McFarland 0.5=about 10^8 CFU/ml), and then the culture broths were diluted with Muellar Hinton Broth to make 10^6 CFU/ml. 5 μl each of the diluted solutions were inoculated on the above-mentioned drug plates by an inoculator Microplanter.
(§4) Thus, bacterial solutions at about 10^8 CFU/ml can be easily prepared by use of McFarland 0.5. Bacterial solutions at such a turbidity are commercially available, but can be easily prepared. McFarland 0.5 can be obtained by adding 0.5 ml of an aqueous 0.048 mol/l barium chloride solution to 99.5 ml of 1% v/v (0.18 mol/l) sulfuric acid. • 4) The individual bacteria were incubated at 37° C. for 18-20 hours and then the growth was determined in the same manner as in Example 2 to obtain minimum growth-inhibiting concentrations.

[2] = test system: Staphylococcus epidermidis ATCC29886
Method: as §1, §2, §3, §4

[3] = test system: Bacillus subtilis ATCC6633
Method: as §3, with “Drug solutions at a concentration 10 times as high as the maximum applicable concentration were prepared as original solutions of test drugs given in Table 2 (as to solvents used for this purpose, reference should be made also to Table 2). Serial two-fold dilution series of the original solutions were prepared at desired stages, and 1 ml each of the diluted drug solutions was added to 9 ml of media given in Table 3 to prepare drug plates. […] • 1)” for “• 1)”, “inoculator Microplanter. […] Thus, bacterial solutions at about 10^8 CFU/ml can be easily prepared by use of McFarland 0.5. Bacterial solutions at such a turbidity are commercially available, but can be easily prepared.” for “inoculator Microplanter.”

[4] = test system: Enterococcus faecalis ATCC29247
Method: as §3, with “Drug solutions at a concentration 10 times as high as the maximum applicable concentration were prepared as original solutions of test drugs given in Table 2 (as to solvents used for this purpose, reference should be made also to Table 2). Serial two-fold dilution series of the original solutions were prepared at desired stages, and 1 ml each of the diluted drug solutions was added to 9 ml of media given in Table 3 to prepare drug plates. […] • 1)” for “• 1)”, “inoculator Microplanter. […] Thus, bacterial solutions at about 10^8 CFU/ml can be easily prepared by use of McFarland 0.5. Bacterial solutions at such a turbidity are commercially available, but can be easily prepared.” for “inoculator Microplanter.”

[5] = test system: Enterococcus faecium ATCC19434
Method: as §3, with “Drug solutions at a concentration 10 times as high as the maximum applicable concentration were prepared as original solutions of test drugs given in Table 2 (as to solvents used for this purpose, reference should be made also to Table 2). Serial two-fold dilution series of the original solutions were prepared at desired stages, and 1 ml each of the diluted drug solutions was added to 9 ml of media given in Table 3 to prepare drug plates. […] • 1)” for “• 1)”, “inoculator Microplanter. […] Thus, bacterial solutions at about 10^8 CFU/ml can be easily prepared by use of McFarland 0.5. Bacterial solutions at such a turbidity are commercially available, but can be easily prepared.” for “inoculator Microplanter.”

[6] = test system: Escherichia coli ATCC25922
Method: as §3, with “Drug solutions at a concentration 10 times as high as the maximum applicable concentration were prepared as original solutions of test drugs given in Table 2 (as to solvents used for this purpose, reference should be made also to Table 2). Serial two-fold dilution series of the original solutions were prepared at desired stages, and 1 ml each of the diluted drug solutions was added to 9 ml of media given in Table 3 to prepare drug plates. […] • 1)” for “• 1)”, “inoculator Microplanter. […] Thus, bacterial solutions at about 10^8 CFU/ml can be easily prepared by use of McFarland 0.5. Bacterial solutions at such a turbidity are commercially available, but can be easily prepared.” for “inoculator Microplanter.”

[7] = test system: Escherichia coli ATCC35218
Method: as §3, with “Drug solutions at a concentration 10 times as high as the maximum applicable concentration were prepared as original solutions of test drugs given in Table 2 (as to solvents used for this purpose, reference should be made also to Table 2). Serial two-fold dilution series of the original solutions were prepared at desired stages, and 1 ml each of the diluted drug solutions was added to 9 ml of media given in Table 3 to prepare drug plates. […] • 1)” for “• 1)”, “inoculator Microplanter. […] Thus, bacterial solutions at about 10^8 CFU/ml can be easily prepared by use of McFarland 0.5. Bacterial solutions at such a turbidity are commercially available, but can be easily prepared.” for “inoculator Microplanter.”

[8] = test system: Haemophilus influenzae ATCC33391
Method: as §3, with “Drug solutions at a concentration 10 times as high as the maximum applicable concentration were prepared as original solutions of test drugs given in Table 2 (as to solvents used for this purpose, reference should be made also to Table 2). Serial two-fold dilution series of the original solutions were prepared at desired stages, and 1 ml each of the diluted drug solutions was added to 9 ml of media given in Table 3 to prepare drug plates. […] • 1)” for “• 1)”, “inoculator Microplanter. […] Thus, bacterial solutions at about 10^8 CFU/ml can be easily prepared by use of McFarland 0.5. Bacterial solutions at such a turbidity are commercially available, but can be easily prepared.” for “inoculator Microplanter.”

[9] = test system: Haemophilus influenzae ATCC33533
Method: as §3, with “Drug solutions at a concentration 10 times as high as the maximum applicable concentration were prepared as original solutions of test drugs given in Table 2 (as to solvents used for this purpose, reference should be made also to Table 2). Serial two-fold dilution series of the original solutions were prepared at desired stages, and 1 ml each of the diluted drug solutions was added to 9 ml of media given in Table 3 to prepare drug plates. […] • 1)” for “• 1)”, “inoculator Microplanter. […] Thus, bacterial solutions at about 10^8 CFU/ml can be easily prepared by use of McFarland 0.5. Bacterial solutions at such a turbidity are commercially available, but can be easily prepared.” for “inoculator Microplanter.”

[10] = test system: Haemophilus influenzae ATCC49247
Method: as §3, with “Drug solutions at a concentration 10 times as high as the maximum applicable concentration were prepared as original solutions of test drugs given in Table 2 (as to solvents used for this purpose, reference should be made also to Table 2). Serial two-fold dilution series of the original solutions were prepared at desired stages, and 1 ml each of the diluted drug solutions was added to 9 ml of media given in Table 3 to prepare drug plates. […] • 1)” for “• 1)”, “inoculator Microplanter. […] Thus, bacterial solutions at about 10^8 CFU/ml can be easily prepared by use of McFarland 0.5. Bacterial solutions at such a turbidity are commercially available, but can be easily prepared.” for “inoculator Microplanter.”

[11] = test system: Haemophilus influenzae ATCC49766
Method: as §3, with “Drug solutions at a concentration 10 times as high as the maximum applicable concentration were prepared as original solutions of test drugs given in Table 2 (as to solvents used for this purpose, reference should be made also to Table 2). Serial two-fold dilution series of the original solutions were prepared at desired stages, and 1 ml each of the diluted drug solutions was added to 9 ml of media given in Table 3 to prepare drug plates. […] • 1)” for “• 1)”, “inoculator Microplanter. […] Thus, bacterial solutions at about 10^8 CFU/ml can be easily prepared by use of McFarland 0.5. Bacterial solutions at such a turbidity are commercially available, but can be easily prepared.” for “inoculator Microplanter.”

[12] = test system: Klebsiella pneumoniae ATCC700603
Method: as §3, with “Drug solutions at a concentration 10 times as high as the maximum applicable concentration were prepared as original solutions of test drugs given in Table 2 (as to solvents used for this purpose, reference should be made also to Table 2). Serial two-fold dilution series of the original solutions were prepared at desired stages, and 1 ml each of the diluted drug solutions was added to 9 ml of media given in Table 3 to prepare drug plates. […] • 1)” for “• 1)”, “inoculator Microplanter. […] Thus, bacterial solutions at about 10^8 CFU/ml can be easily prepared by use of McFarland 0.5. Bacterial solutions at such a turbidity are commercially available, but can be easily prepared.” for “inoculator Microplanter.”

[13] = test system: Micrococcus luteus ATCC9341
Method: as §3, with “Drug solutions at a concentration 10 times as high as the maximum applicable concentration were prepared as original solutions of test drugs given in Table 2 (as to solvents used for this purpose, reference should be made also to Table 2). Serial two-fold dilution series of the original solutions were prepared at desired stages, and 1 ml each of the diluted drug solutions was added to 9 ml of media given in Table 3 to prepare drug plates. […] • 1)” for “• 1)”, “inoculator Microplanter. […] Thus, bacterial solutions at about 10^8 CFU/ml can be easily prepared by use of McFarland 0.5. Bacterial solutions at such a turbidity are commercially available, but can be easily prepared.” for “inoculator Microplanter.”

[14] = test system: Moraxella (Branhamella) catarrhalis ATCC25238
Method: as §3, with “Drug solutions at a concentration 10 times as high as the maximum applicable concentration were prepared as original solutions of test drugs given in Table 2 (as to solvents used for this purpose, reference should be made also to Table 2). Serial two-fold dilution series of the original solutions were prepared at desired stages, and 1 ml each of the diluted drug solutions was added to 9 ml of media given in Table 3 to prepare drug plates. […] • 1)” for “• 1)”, “inoculator Microplanter. […] Thus, bacterial solutions at about 10^8 CFU/ml can be easily prepared by use of McFarland 0.5. Bacterial solutions at such a turbidity are commercially available, but can be easily prepared.” for “inoculator Microplanter.”

## CC[C@H]1OC(=O)[C@H](C)[C@@H](O[C@H]2C[C@@](C)(OC)[C@@H](O)[C@H](C)O2)[C@H](C)[C@@H](O[C@@H]2O[C@H](C)C[C@H](N(C)C)[C@H]2O)[C@](C)(OC)C[C@@H](C)C(=O)[C@H](C)[C@@H](O)[C@]1(C)O [CAM, Clarithromycin]
[1]
  MIC: 0.2 µg/mL (≈ 0.267 µM)
[2]
  MIC: 0.39 µg/mL (≈ 0.521 µM)
[3]
  MIC: 0.1 µg/mL (≈ 0.134 µM)
[4]
  MIC: 1.56 µg/mL (≈ 2.09 µM)
[5]
  MIC: 1.56 µg/mL (≈ 2.09 µM)
[6]
  MIC: 50 µg/mL (≈ 66.8 µM)
[7]
  MIC: 25 µg/mL (≈ 33.4 µM)
[8]
  MIC: 6.25 µg/mL (≈ 8.36 µM)
[9]
  MIC: 3.13 µg/mL (≈ 4.18 µM)
[10]
  MIC: 6.25 µg/mL (≈ 8.36 µM)
[11]
  MIC: 6.25 µg/mL (≈ 8.36 µM)
[12]
  MIC: > 100 µg/mL
[13]
  MIC: 0.05 µg/mL (≈ 0.0668 µM)
[14]
  MIC: 0.1 µg/mL (≈ 0.134 µM)
